# Assay: ABEL antioxidant assay with peroxynitrite, raw materials and combinations of three raw materials in solvent
# Type: biochemical
# Settings: for ABEL-RAC contribution in combination: ABEL-RAC of pure ingredient x percentage of ingredient in combination
# From the text: The ABEL antioxidant assay is an in vitro assay for testing the antioxidant capacity of a material. It utilises a photoprotein, which emits light when challenged with various free radical species, eg peroxynitrite, hydroxyl radicals or halogenated oxidants.
# If a material is challenged with one or more of these free radical species, then any antioxidant in the sample will compete with the photoprotein. The result of this competition is a reduction in the amount of light emitted and sometimes, in addition, a delay in the time at which the maximum light emitted occurs. A light response curve can be produced for each sample tested, and EC50 and ABEL-RAC values calculated. The EC50 (effective concentration) is the concentration (normalised to g/L or mg/mL) of a material that reduces the light emitted by 50%. This reduction in light is a measure of the antioxidant capacity of the test material. The reciprocal of the EC50 values multiplied by 100 is referred to as the ABEL-RAC score.
# The ABEL® antioxidant assay with peroxynitrite is the assay of choice to assess total antioxidant capacity because peroxynitrite attacks almost all compounds, including hydrophobic and hydrophilic antioxidants. Pro-oxidants are also identified with the peroxynitrite assay. Other ABEL® antioxidant assays use superoxide (produced as a single bolus in high concentration as well as enzymatically), hydroxyl radical and hyperchlorous acid (the halogenated oxidant assay). Pro-oxidants are not observed with the hydroxyl radical and halogenated oxidant assays. The hydroxyl radical assay is recommended when samples are water-soluble and the halogenated assay when the samples are soluble in organic solvent. This is because solvents such as ethanol, methanol, acetone and DMSO are good quenchers of hydroxyl radicals, and therefore the organic solvents contribute to the antioxidant effect shown by the sample. Organic solvents have little effect, however, on the halogenated oxidant assay.
# • 1. The antioxidant agents (referred to as raw materials (RM) hereafter) were first dissolved in an appropriate solvent as detailed in Table 1. • 2. Combinations of three raw materials were prepared for testing by combining one part each of three raw material dilutions, at the concentrations specified in Table 2. • 3. In Table 2 each combination is given a combination number and each combination number is further described as A, B or C, where the concentrations of the raw material dilutions used in B are ten times greater that A, and the concentrations used in C are ten times greater than B (one hundred times greater than A). • 4. The concentrations of raw materials provided in Table 2 are the final concentrations of those materials in the ABEL® antioxidant assay.
# Raw material combinations 1, 3, 4, 8 and 9 were assayed at three additional concentrations which are dilutions of concentration A (see Table 2). The details are contained in Table 3.
compound,measurement,setting,value
"COc1cc2c(cc1O)CCC(C)(C)O2 [RM10, dimethylmethoxy chromanol]",ABEL-RAC contribution in combination,Combination 1,35221
same,ABEL-RAC contribution in combination,Combination 3,10031
same,ABEL-RAC contribution in combination,Combination 4,9606
same,ABEL-RAC contribution in combination,Combination 8,4832
same,Effect of solvent (ethanol rather than IMS) on ABEL peroxynitrite assay result,"diluted with IMS versus diluted with ethanol, FIG. 19",does not make an appreciable difference
same,EC50 mg/mL of pure ingredient,"pure raw material, ABEL peroxynitrite assay",0.0018 mg/mL
same,ABEL-RAC peroxynitrite of pure ingredient,"pure raw material, ABEL-RAC = reciprocal of EC50 x 100",88053
